Experimental findings from patent US20190381086A1, “INHIBITION OF NEDDYLATION USING GLYCYL-tRNA SYNTHETASE INHIBITORS” (The Scripps Research Institute, priority 2015, published 2019) are described below.

In general, GI50 refers to the concentration at which growth is held to half of that of the control. Read a low GI50 as greater sensitivity of the cells.

The test system of one data set is HL-60(TB). Type of data set: cell-based.
In the next data set the test system is MDA-MB-231/ATCC. The data set is described as follows: NCI 60 Cell One-Dose Screen. Type of data set: cell-based, human. As to conditions: Breast Cancer, single dose 10^-5 M.

As to `NCC(=O)NS(=O)(=O)OC[C@H]1O[C@@H](n2cnc3c(N)ncnc32)[C@H](O)[C@@H]1O` [GlySA, glycylsulfamoyladenosine], in the data set on HL-60(TB) (HL-60(TB), Leukemia), the LC50/GI50 is recorded as more than 36.3. Further, halving of growth with HL-60(TB) (Homo sapiens, HL-60) (GI50) required 2750 nM. For the same molecule, the “Growth inhibition count (%)” value in the data set with MDA-MB-231/ATCC amounted to 2.608%.
